In patent publication US20120065221A1, “Extended Release Oral Pharmaceutical Compositions of 3-Hydroxy-N-Methylmorphinan and Method of Use” (priority 2009, published 2012):
Counter-ions that a name gives are not always drawn. Like-named read-outs stand apart in the source and are kept apart here.

Key:
[1] = American Pain Society 2008, cited from earlier work
[2] = cited from earlier work; for plasma half life: American Pain Society 2008; for half-life of oral levorphanol: Dixon et al 1983
[3] = tested on: serotonin reuptake and norepinephrine reuptake in rat brain synaptosomes; test: norepinephrine and serotonin reuptake inhibition in rat brain synaptosomes; format: biochemical
[4] = tested on: thermal nociception (tail flick test); test: Tail flick test of thermal nociception; format: in vivo, rat; settings: compared with morphine
Experimental: Objective: To evaluate the efficacy and potency of levorphanol and to compare its potency relative to that of morphine in a model of thermal nociception (tail flick test).
Methods: Male Sprague-Dawley rats (200-300 grams) were used. Antinociceptive activity was determined by a significant increase in the latency to a reflexive flicking of the tail away from a radiant heat (infrared) source projected onto a small area on the ventral aspect of the tail. Baseline tail flick latencies were determined prior to any drug administration. The antinociceptive effect of levorphanol was determined 30, 45 and 60 minutes after dosing. […] Tail flick latencies for each time-point were compared to the mean baseline response by ANOVA followed by the post-hoc Fisher's Least Significant Difference test. A significant increase from the baseline was considered antinociceptive. […] Dose-response curves along with A50 values (i.e., dose calculated to produce a 50% MPE) and confidence intervals were determined from linear regression analysis of the log dose-effect curves. Significant differences in potency between 2 dose-response curves were determined by applying the Student's t-statistic to variances of the A50 values obtained for each dose-response curve.

[5] = tested on: thermal nociception (hot-plate test); test: 53° C. hot-plate test of thermal nociception; format: in vivo, rat; settings: compared with morphine
Experimental: Methods: Male Sprague-Dawley rats (200-300 grams) were used. Antinociceptive activity was determined by the 53° C. hot-plate test. The rat is placed on a metal plate heated to 53° C., and the latency to withdrawing or shaking or licking of a paw, or escape attempts by jumping were documented. A cut-off latency of 15 sec was employed. Drugs were prepared administered after baseline measurements were performed. Behavioral testing was performed 30, 45 and 60 minutes after dosing. The levorphanol data for were compared to historical morphine data. […] Dose-response curves along with A50 values (i.e., dose calculated to produce a 50% MPE) and confidence intervals were determined from linear regression analysis of the log dose-effect curves. Significant differences in potency between 2 dose-response curves were determined by applying the Student's t-statistic to variances of the A50 values obtained for each dose-response curve. The antinociceptive effect of levorphanol was determined in the 53° C. rat hot-plate test 30, 45 and 60 minutes after dosing. Hot-plate latencies for each time-point were compared to the mean baseline response by ANOVA followed by the post-hoc Fisher's Least Significant Difference test.

[6] = published pharmacokinetics of oral levorphanol (prescribing information, American Pain Society, Dixon et al)
NMDA = NMDA (Rattus norvegicus, UniProt P35439)
Source text: The specific ligand binding to the receptors was defined as the difference between the total binding and the nonspecific binding determined in the presence of an excess of unlabelled ligand. The results were expressed as a percent of control specific binding ((measured specific binding/control specific binding)×100) and as a percent inhibition of control specific binding (100-((measured specific binding/control specific binding)×100)) obtained in the presence of the test compounds. The IC50 values (concentration causing a half-maximal inhibition of control specific binding) and Hill coefficients (nH) were determined by non-linear regression analysis of the competition curves generated with mean replicate values using Hill equation curve fitting (Y=D+[(A−D)/(1+(C/C50)^nH)], where Y=specific binding, D=minimum specific binding, A=maximum specific binding, C=compound concentration, C50=IC50, and nH=slope factor). This analysis was performed using validated proprietary software. The inhibition constants (Ki) were calculated using the Cheng Prusoff equation Ki=IC50/(1+(L/KD)), where L=concentration of radioligand in the assay, and KD=affinity of the radioligand for the receptor). A scatchard plot was used to determine the Kd.

5-HT uptake = biological target: T1, 5-HT uptake (Rattus norvegicus, UniProt P31652); test: 5-HT uptake assay; format: biochemical; settings: rat brain synaptosomes
T1 construct: [^3H]5-HT incorporation into rat brain synaptosomes; from tissue; host or cells: rat brain synaptosomes
Experimental: (§1) This analysis was performed using validated proprietary software.

norepinephrine uptake = biological target: T2, norepinephrine uptake (Rattus norvegicus, UniProt Q63380); test: norepinephrine uptake assay; format: biochemical; settings: rat hypothalamus synaptosomes
T2 construct: [^3H]NE incorporation into rat hypothalamus synaptomsomes; from tissue; host or cells: rat hypothalamus synaptosomes
Experimental: as §1

[7] = IC50, expressed as levorphanol base
[8] = IC50, expressed as levorphanol tartrate

T1 sequence (P31652 whole entry): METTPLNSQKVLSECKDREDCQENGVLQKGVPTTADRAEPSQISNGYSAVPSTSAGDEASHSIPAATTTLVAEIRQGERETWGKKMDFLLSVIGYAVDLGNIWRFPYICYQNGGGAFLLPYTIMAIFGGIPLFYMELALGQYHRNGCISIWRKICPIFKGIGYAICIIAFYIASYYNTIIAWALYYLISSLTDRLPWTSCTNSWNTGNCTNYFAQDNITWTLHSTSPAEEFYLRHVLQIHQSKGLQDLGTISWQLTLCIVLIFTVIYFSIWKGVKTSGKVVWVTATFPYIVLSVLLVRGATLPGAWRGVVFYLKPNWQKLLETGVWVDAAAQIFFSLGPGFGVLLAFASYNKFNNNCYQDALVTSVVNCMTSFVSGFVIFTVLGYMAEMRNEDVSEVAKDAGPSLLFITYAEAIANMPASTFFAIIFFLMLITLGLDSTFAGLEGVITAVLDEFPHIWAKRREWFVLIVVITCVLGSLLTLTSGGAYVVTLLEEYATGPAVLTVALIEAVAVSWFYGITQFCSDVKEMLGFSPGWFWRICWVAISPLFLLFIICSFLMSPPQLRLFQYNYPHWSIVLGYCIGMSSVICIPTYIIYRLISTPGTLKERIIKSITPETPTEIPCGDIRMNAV
T2 sequence (Q63380 1-617): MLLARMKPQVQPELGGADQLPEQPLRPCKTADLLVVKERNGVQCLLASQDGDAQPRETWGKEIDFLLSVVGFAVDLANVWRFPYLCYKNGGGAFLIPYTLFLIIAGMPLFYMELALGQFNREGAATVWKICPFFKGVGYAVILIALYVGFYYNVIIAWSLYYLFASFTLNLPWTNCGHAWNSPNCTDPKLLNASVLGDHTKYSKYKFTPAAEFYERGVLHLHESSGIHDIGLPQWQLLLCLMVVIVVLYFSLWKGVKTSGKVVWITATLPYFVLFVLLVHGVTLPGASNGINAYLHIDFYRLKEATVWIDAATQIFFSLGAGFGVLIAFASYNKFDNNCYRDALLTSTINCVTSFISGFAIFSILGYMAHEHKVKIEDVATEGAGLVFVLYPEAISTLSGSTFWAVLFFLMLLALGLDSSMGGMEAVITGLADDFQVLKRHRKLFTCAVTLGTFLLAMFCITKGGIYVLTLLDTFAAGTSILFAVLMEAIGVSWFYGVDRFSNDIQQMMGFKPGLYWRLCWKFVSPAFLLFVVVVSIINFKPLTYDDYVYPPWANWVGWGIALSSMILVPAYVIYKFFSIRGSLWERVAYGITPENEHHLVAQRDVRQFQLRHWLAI

| SMILES | dose equianalgesic to oral morphine sulfate 30 mg ([1]; acute pain) | dose equianalgesic to oral morphine sulfate 30 mg ([1]; chronic pain) | plasma half life [2] | plasma half life ([2]; after 1 week of dosing) | half-life of oral levorphanol ([2]; one patient) | half-life of oral levorphanol ([2]; second patient) | selectivity for serotonin reuptake inhibition over norepinephrine reuptake inhibition [3] | duration of analgesic action [4] | duration of analgesic action [5] | mean time to steady state ([6]; using the average of the two reported values) | time to reach steady state therapeutic concentration upon repeated dosing ([6]; using the higher reported 30 hour half-life) | time to reach steady state therapeutic concentration upon repeated dosing ([6]; using the lower reported 16 hour half-life) | inhibition (NMDA) | IC50 (5-HT uptake; [7]) | IC50 (5-HT uptake; [8]) | IC50 (norepinephrine uptake; [7]) | IC50 (norepinephrine uptake; [8]) |
| --- | --- | --- | --- | --- | --- | --- | --- | --- | --- | --- | --- | --- | --- | --- | --- | --- | --- |
| CN1CC[C@]23CCCC[C@H]2[C@H]1Cc1ccc(O)cc13 [levorphanol, l 3-hydroxy-N-methylmorphinan] | 4 mg | 1 mg | 12 to 16 h | 90 to 120 h | approximately 16 hours | 30 h | approximately 40 fold | shorter than that of morphine | shorter than that of morphine | 115 h | 150 h | 80 h |  |  |  |  |  |
| CN1CC[C@]23CCCC[C@H]2[C@H]1Cc1ccc(O)cc13 [Levorphanol Tartrate, morphinan-3-ol, 17-methyl-, [R—(R*,R*)]-2,3-dihydroxybutane-dioate (1:1) (salt) dihydrate] |  |  |  |  |  |  |  |  |  |  |  |  | 91% | 30.2 nM | 52 nM | 1220 nM | 2100 nM |
